Test results as given in ChEMBL document CHEMBL4680117, “Discovery of 3,3'-pyrrolidinyl-spirooxindoles as cardioprotectant prohibitin ligands” (Eur J Med Chem, 2020).
The source made the active and inactive calls. No cut-off for these calls is given here.

Experiments:
H9c2 [1] = assay: Cardioprotective activity against rat H9c2 cells assessed as inhibition of doxorubicin-induced ROS production at 0.3 nM preincubated for 14 hrs followed by loading with DCFDA dye for 45 mins and later exposed to doxorubicin for 3 hrs by DCF-DA probe based fluorescence assay (reference value: 0%); format: functional; details: H9c2, 17.75 h, time 1065 min
H9c2 [2] = assay: Cardioprotective activity against rat H9c2 cells assessed as inhibition of doxorubicin-induced cytotoxicity by measuring increase in cell suvival at 0.3 nM preincubated for 10 hrs followed by doxorubicin treatment and measured after 14 hrs by cQuant based analysis (reference value: 0%); format: functional; design: scale not given: the % may be the effect or the level left; details: time 24 hrs
H9c2 [3] = assay: Cardioprotective activity against rat H9c2 cells assessed as inhibition of doxorubicin-induced cytotoxicity by measuring increase in cell suvival at 1 nM preincubated for 10 hrs followed by doxorubicin treatment and measured after 14 hrs by cQuant based analysis (reference value: 0%); format: functional; design: scale not given: the % may be the effect or the level left; details: time 24 hrs
H9c2 [4] = assay: Cardioprotective activity against rat H9c2 cells assessed as inhibition of doxorubicin-induced ROS production at 1 nM preincubated for 14 hrs followed by loading with DCFDA dye for 45 mins and later exposed to doxorubicin for 3 hrs by DCF-DA probe based fluorescence assay (reference value: 0%); format: functional; details: H9c2, 17.75 h, time 1065 min
H9c2 [5] = assay: Binding affinity to PHB1 in rat H9c2 cells incubated for overnight by AffiGel 10 beads pull down based western blot analysis; format: cell-based
H9c2 [6] = assay: Binding affinity to PHB2 in rat H9c2 cells incubated for overnight by AffiGel 10 beads pull down based western blot analysis; format: cell-based
MCF7 = assay: Cytotoxicity against human MCF7 cells; format: functional, cell-based
H9c2 [7] = assay: Cardioprotective activity against rat H9c2 cells assessed as inhibition of doxorubicin-induced cytotoxicity at 10 to 30 nM preincubated for 10 hrs followed by doxorubicin treatment and measured after 14 hrs by cQuant based analysis; format: functional, cell-based; details: dose 10-30 nM, time 24.0 hrs
H9c2 [8] = assay: Cardioprotective activity against rat H9c2 cells assessed as inhibition of doxorubicin-induced ROS production at 10 to 30 nM preincubated for 14 hrs followed by loading with DCFDA dye for 45 mins and later exposed to doxorubicin for 3 hrs by DCF-DA probe based fluorescence assay; format: functional, cell-based; details: dose 10-30 nM, time 1065.0 min
H9c2 [9] = assay: Binding affinity to PHB1/2 in rat H9c2 cells assessed as induction of STAT3 phosphorylation at 10 nM incubated for 10 to 40 mins by western blot analysis; format: cell-based; details: time 10-40 min

Row | Structure (SMILES) | inhibition at 0.0003 µM (H9c2 [1]) [%] | Activity (H9c2 [2]) [%] | Activity (H9c2 [3]) [%] | inhibition at 0.001 µM (H9c2 [4]) [%] | Activity (H9c2 [5]) | Activity (H9c2 [6]) | EC50 (MCF7) [µM] | Activity (H9c2 [7]) | Activity (H9c2 [8]) | Activity (H9c2 [9])
1 | Cc1ccc2c(c1)NC(=O)C21CCNC1c1ccccc1 (stereo not given) | 0 | 0.3 | 2.6 | 3.2 |  |  |  |  |  | 
2 | O=C(CCC(=O)ON1C(=O)CCC1=O)NCCNC(=O)CNCCOCCOCCOCCN1CCC2(C(=O)Nc3ccccc32)C1c1ccccc1 (stereo not given) |  |  |  |  | Active | Active |  |  |  | 
3 | CCCCN1CC[C@@]2(C(=O)Nc3ccccc32)[C@@H]1c1ccccc1 | 6.2 | 0.9 | 5.7 | 12.5 |  |  |  |  |  | 
4 | COC(=O)[C@H]1C[C@]2(C(=O)Nc3ccccc32)[C@@H](c2ccccc2)N1 | 3.1 | 4 | 6.4 | 9.4 |  |  |  |  |  | 
5 | O=C1Nc2ccccc2[C@]12CCNC2c1ccccc1 (stereo not given in full) | 12.5 | 7.7 | 11.3 | 18.8 |  |  | 3.5 |  |  | 
6 | O=C(CN1CC[C@@]2(C(=O)Nc3ccccc32)[C@@H]1c1ccccc1)N1CCOCC1 | 0 | 0.3 | 0.3 | 6.2 |  |  |  |  |  | 
7 | CCCN1CC[C@@]2(C(=O)Nc3ccccc32)[C@@H]1c1ccccc1 | 3.1 | 1.3 | 0.8 | 6.2 |  |  |  |  |  | 
8 | CN1C(=O)[C@@]2(c3ccccc31)[C@H](c1ccccc1)N(C)C(=O)[C@@H]2O | 3.2 | 1.9 | 2.9 | 2.1 |  |  |  |  |  | 
9 | CN(C)C(=O)CN1CC[C@@]2(C(=O)Nc3ccccc32)[C@@H]1c1ccccc1 | 0 | 1.4 | 0.2 | 9.4 |  |  |  |  |  | 
10 | CC(C)N1CC[C@@]2(C(=O)Nc3ccccc32)[C@@H]1c1ccccc1 | 14.3 | 6.7 | 10.7 | 20.5 |  |  |  | Active | Active | Active
11 | O=C1N[C@@H](c2ccccc2)[C@]2(C(=O)Nc3ccccc32)[C@H]1O | 6.25 | 3 | 5.8 | 21.9 |  |  |  |  |  | 
12 | CCN1CC[C@@]2(C(=O)Nc3ccccc32)[C@@H]1c1ccccc1 | 9.4 | 6 | 7.4 | 12.5 |  |  |  |  |  | 
13 | COC(=O)[C@H]1C[C@@]2(C(=O)Nc3ccccc32)[C@H](c2ccccc2)N1 | 2.9 | 2.9 | 7.1 | 2.7 |  |  |  |  |  | 
14 | O=C(CCC(=O)ON1C(=O)CCC1=O)NCCNC(=O)CNCCOCCOCCOCCN1C(=O)C2(CCNC2c2ccccc2)c2ccccc21 (stereo not given) |  |  |  |  | Active | Active |  |  |  | 
15 | COc1cc(OC)c2c(c1)O[C@@]1(c3ccc(Br)cc3)[C@H](c3ccccc3)C[C@@H](O)[C@@]21O | 9.5 | 3.5 | 9.7 | 15.9 |  |  |  | Active | Active | 
16 | O=C1Nc2ccccc2[C@]12CCN(C1CCCC1)[C@H]2c1ccccc1 | 0 | 2.6 | 0.2 | 12.5 |  |  |  |  |  | 
17 | CN1CC[C@@]2(C(=O)Nc3ccccc32)[C@@H]1c1ccccc1 | 9.4 | 5.4 | 7.6 | 15.6 |  |  |  |  |  | 
18 | C=CCN1CC[C@@]2(C(=O)Nc3ccccc32)[C@@H]1c1ccccc1 | 12.7 | 4.6 | 11.6 | 20.6 |  |  |  | Active | Active | 
19 | O=C1Nc2cc(Br)ccc2C12CCNC2c1ccccc1 (stereo not given) | 3.2 | 1.1 | 6.5 | 6.5 |  |  |  |  |  | 
